The record followed here is ChEMBL document CHEMBL5042544, “Discovery of a Potent and Selective ATAD2 Bromodomain Inhibitor with Antiproliferative Activity in Breast Cancer Models” (J Med Chem, 2022).

Assay [1] in a line: Binding affinity to human ATAD2A assessed as dissociation constant by BROMOscan method.
The species named for the next assay is Homo sapiens. In words: Binding affinity to human ATAD2A assessed as residual activity at 300 nM by BROMOscan method relative to control.
Assay [2] has as its target Bromodomain-containing protein 2 (Homo sapiens, UniProt P25440). Description: Binding affinity to human BRD2 bromodomain 2 assessed as residual activity at 300 nM by BROMOscan method relative to control.
The target of assay [3] is T1, ATPase family AAA domain-containing protein 2 (Homo sapiens, UniProt Q6PL18).
T1 sequence (Q6PL18 whole entry): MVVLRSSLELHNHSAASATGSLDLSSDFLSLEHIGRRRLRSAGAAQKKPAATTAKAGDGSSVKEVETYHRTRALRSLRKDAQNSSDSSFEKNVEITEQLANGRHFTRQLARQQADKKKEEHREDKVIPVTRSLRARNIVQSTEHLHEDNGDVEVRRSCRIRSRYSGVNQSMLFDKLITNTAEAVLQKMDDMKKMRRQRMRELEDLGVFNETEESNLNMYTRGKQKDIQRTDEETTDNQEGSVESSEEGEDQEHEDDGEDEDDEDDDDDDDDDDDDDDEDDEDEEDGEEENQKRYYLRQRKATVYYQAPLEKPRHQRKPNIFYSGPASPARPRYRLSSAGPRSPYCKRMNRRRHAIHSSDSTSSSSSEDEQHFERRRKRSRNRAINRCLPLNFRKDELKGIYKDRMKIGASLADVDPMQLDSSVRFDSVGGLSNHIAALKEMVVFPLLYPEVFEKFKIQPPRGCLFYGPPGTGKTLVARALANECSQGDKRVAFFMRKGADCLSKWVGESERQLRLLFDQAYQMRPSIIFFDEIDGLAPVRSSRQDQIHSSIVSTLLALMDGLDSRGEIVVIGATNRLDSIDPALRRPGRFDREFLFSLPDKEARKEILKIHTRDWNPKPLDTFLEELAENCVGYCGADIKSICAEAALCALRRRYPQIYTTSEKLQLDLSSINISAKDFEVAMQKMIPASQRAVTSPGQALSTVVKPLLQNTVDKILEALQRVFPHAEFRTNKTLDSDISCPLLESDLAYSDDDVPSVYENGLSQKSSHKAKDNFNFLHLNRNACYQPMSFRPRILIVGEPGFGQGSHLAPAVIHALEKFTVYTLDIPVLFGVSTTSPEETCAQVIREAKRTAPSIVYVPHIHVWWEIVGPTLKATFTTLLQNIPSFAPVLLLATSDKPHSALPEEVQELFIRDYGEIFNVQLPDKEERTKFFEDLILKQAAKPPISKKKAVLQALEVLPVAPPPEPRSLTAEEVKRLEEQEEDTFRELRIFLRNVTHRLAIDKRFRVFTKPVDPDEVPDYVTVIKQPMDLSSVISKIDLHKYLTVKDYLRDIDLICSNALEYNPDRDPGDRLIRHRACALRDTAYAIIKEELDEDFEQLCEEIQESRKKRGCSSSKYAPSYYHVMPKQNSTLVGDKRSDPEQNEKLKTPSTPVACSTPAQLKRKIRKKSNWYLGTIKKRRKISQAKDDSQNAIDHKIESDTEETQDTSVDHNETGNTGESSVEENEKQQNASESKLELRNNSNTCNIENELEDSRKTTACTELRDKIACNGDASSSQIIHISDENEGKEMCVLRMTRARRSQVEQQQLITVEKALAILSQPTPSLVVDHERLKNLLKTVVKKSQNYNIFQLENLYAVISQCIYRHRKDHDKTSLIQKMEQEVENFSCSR
Description: Binding affinity to ATAD2 bromodomain (981 to 1108 residues) (unknown origin) expressed in Escherichia coli BL21 (DE3) by BROMOscan method.

Assay [4] has as its target Histone acetyltransferase KAT2B (Homo sapiens, UniProt Q92831). Description: Binding affinity to human PCAF bromodomain assessed as dissociation constant by BROMOscan method.
The target in assay [5] is Bromodomain-containing protein 4 (Homo sapiens, UniProt O60885). Description: Displacement of Halo-tagged Histone H3.3 from Nanoluc-BRD4 BD1/BD2 (44 to 460 residues) (unknown origin) transfected in human HCT116 cells incubated for 18 hrs by NanoBRET assay. Type of assay: cell-based, HCT-116.
Assay [6] has as its target Nucleosome-remodeling factor subunit BPTF (Homo sapiens, UniProt Q12830). In words: Binding affinity to human FALZ bromodomain assessed as residual activity at 300 nM by BROMOscan method relative to control.
In assay [7] the target is T1, ATPase family AAA domain-containing protein 2. In words: Displacement of Halo-tagged Histone H3.3 from Nanoluc-ATAD2 BD (962 to 1119 residues) (unknown origin) transfected in human HCT116 cells incubated for 18 hrs in presence of efflux inhibitor elacridar by NanoBRET assay. Type of assay: cell-based, HCT-116. On the technique in general: Bioluminescence resonance energy transfer reports proximity on the nanometre scale.

Sequence of Histone acetyltransferase KAT2B (Q92831 whole entry, the tested form may be a part): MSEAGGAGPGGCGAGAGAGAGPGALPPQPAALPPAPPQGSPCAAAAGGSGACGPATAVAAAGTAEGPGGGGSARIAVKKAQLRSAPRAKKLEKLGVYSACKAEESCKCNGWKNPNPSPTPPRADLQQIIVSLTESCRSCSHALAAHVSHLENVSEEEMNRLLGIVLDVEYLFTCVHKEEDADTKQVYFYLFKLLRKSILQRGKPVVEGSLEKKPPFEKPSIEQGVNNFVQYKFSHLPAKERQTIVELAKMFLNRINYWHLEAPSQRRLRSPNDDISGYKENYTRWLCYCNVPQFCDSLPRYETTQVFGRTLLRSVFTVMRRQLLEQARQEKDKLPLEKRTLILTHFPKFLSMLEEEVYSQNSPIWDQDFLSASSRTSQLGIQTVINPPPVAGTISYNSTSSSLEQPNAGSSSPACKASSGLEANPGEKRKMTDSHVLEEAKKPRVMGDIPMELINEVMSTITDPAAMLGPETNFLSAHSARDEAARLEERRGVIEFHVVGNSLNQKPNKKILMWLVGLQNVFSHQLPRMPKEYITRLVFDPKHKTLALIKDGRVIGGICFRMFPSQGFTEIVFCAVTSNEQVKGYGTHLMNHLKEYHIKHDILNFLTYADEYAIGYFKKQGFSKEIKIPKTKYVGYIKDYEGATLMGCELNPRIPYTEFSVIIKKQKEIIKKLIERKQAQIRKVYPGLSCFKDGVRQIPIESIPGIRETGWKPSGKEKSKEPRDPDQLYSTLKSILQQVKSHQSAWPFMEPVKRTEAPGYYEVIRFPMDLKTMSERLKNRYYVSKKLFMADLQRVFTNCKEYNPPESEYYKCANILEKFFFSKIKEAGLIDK
Sequence of Bromodomain-containing protein 2 (P25440 whole entry, looked up, the tested form may be a part): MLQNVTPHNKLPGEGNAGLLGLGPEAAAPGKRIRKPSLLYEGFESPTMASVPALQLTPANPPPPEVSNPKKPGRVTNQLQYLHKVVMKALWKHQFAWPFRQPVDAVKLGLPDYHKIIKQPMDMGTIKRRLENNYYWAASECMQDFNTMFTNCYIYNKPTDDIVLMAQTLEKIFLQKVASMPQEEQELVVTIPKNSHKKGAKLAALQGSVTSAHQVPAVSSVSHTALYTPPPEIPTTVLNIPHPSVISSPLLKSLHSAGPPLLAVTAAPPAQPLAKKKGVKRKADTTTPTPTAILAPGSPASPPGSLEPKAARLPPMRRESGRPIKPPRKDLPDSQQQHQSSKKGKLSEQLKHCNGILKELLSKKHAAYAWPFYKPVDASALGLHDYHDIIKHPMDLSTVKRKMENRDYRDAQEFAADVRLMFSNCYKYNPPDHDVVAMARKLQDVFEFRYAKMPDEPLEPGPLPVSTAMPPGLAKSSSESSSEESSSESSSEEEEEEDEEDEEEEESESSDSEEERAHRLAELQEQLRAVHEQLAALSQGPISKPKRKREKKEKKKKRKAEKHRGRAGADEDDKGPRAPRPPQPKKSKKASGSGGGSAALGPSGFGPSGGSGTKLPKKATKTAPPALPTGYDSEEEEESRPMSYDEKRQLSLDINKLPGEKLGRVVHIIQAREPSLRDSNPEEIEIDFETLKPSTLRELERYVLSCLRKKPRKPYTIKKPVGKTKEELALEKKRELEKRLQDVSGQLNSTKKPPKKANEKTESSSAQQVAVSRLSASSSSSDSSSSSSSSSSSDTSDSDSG

The pKd is the negative decadic logarithm of the Kd, by convention in mol/L. A word on the Kd: it is the equilibrium constant for the complex coming apart. As a reminder, the IC50 is the point on the concentration scale where inhibition reaches its midpoint. Regarding `Cc1nnc2c(NC3CCN(CC(C)(C)F)CC3)cc(C(=O)N3[C@@H]4c5ccccc5C[C@H]3C(=O)N[C@@H]4C(C)C)nn12`, the pKd in assay [1] is 8.9. Also, the figures for the Activity (in the assay filed under Homo sapiens; in assay [2]; in assay [6]) were 0%, 31% and 53%, respectively. Moreover, the Kd is 0.00126 µM in assay [3] and > 0.316 µM in assay [4]. Moreover, the IC50 in assay [5] was 10 µM; in assay [7], 0.1 µM.
